Data as given in PubChem BioAssay AID1996.
≈ marks a conversion by molar mass, not a printed value.

Settings: buffer; pH 7.4; 200.0 µM
With O=S(=O)(/C=C/c1ccccc1)N1CCOCC1 the solubility kinetic was > 38 µg/mL. CC1C(=O)Nc2ccccc2N1C(=O)c1ccc(Cl)c(Cl)c1 (configuration not stated) showed a solubility kinetic of 36.2 µg/mL (≈ 108 µM). With Cc1cccc(N2CCN(C(=O)c3ccc(NC(=O)CC4SC(N5CCCC5)=NC4=O)cc3)CC2)c1C (configuration not stated) the solubility kinetic was 30.3 µg/mL (≈ 58.3 µM). With O=C(Nc1ccc2c(c1)CCC2)c1cnc(Cl)c(Cl)c1 the solubility kinetic was < 0.3 µg/mL. Work on CC1(C)C(CC2OCC(CN3CCCCC3)O2)[C@H]2CC[C@@H]1C2 (some centres not stated) yielded a solubility kinetic of 25.9 µg/mL (≈ 84.2 µM). N#Cc1ccsc1NC(=O)CN1CCOCC1 gave a solubility kinetic of 28.6 µg/mL (≈ 114 µM). For CC(=O)SC1CC(=O)N(c2c(C)cccc2C)C1=O (configuration not stated), the solubility kinetic was > 41.6 µg/mL. Work on CC1CCN(C(=O)c2ccc(-c3ccccc3Cl)o2)CC1 yielded a solubility kinetic of 7.3 µg/mL (≈ 24 µM). Compound COc1cc(C)c(Cl)cc1S(=O)(=O)NCc1ccccn1 has a solubility kinetic of 34.5 µg/mL (≈ 106 µM). For Cc1cccc(-c2nc3cc([N+](=O)[O-])ccc3o2)c1, the solubility kinetic was < 0.3 µg/mL. O=C(NCCc1c[nH]c2ccccc12)C(=O)NCC1CCCO1 (configuration not stated) showed a solubility kinetic of 9 µg/mL (≈ 28.5 µM). For O=C(c1ccc([N+](=O)[O-])s1)N1CCc2ccccc21, the solubility kinetic was < 0.3 µg/mL. In the case of CC(=O)c1cccc(NC(=O)N2CCOCC2)c1, the solubility kinetic is reported as > 37.2 µg/mL. With COc1cccc(N2C(=O)/C(=C\c3cccs3)NC2=S)c1 the solubility kinetic was 4.1 µg/mL (≈ 13 µM). With Cl.OCCNCCNCc1ccccc1OCc1ccccc1 the solubility kinetic was > 50.5 µg/mL. Compound CCN(CC)CC(=O)c1c(N)n(Cc2ccccc2)c(=O)n(C)c1=O has a solubility kinetic of 51.4 µg/mL (≈ 149 µM). COc1ccc(NC(=O)C2CCCN(c3ncccn3)C2)cc1 (configuration not stated) gave a solubility kinetic of 14.5 µg/mL (≈ 46.4 µM). Cc1ccc2oc(=O)n(CCOc3ccccc3)c2c1 gave a solubility kinetic of 14.2 µg/mL (≈ 52.7 µM). With COc1ccccc1N1C(=O)S/C(=C\c2ccc(C)s2)C1=O the solubility kinetic was < 0.7 µg/mL. In the case of COc1ccc(OC)c(S(=O)(=O)Nc2cc(C)on2)c1, the solubility kinetic is reported as > 44.7 µg/mL. Work on CC(NC(=O)c1ccc(Cl)cc1)C1CC2CCC1C2 (configuration not stated) yielded a solubility kinetic of 1.1 µg/mL (≈ 3.96 µM). With CC(NC(=O)COC(=O)CCC(=O)c1ccc(Cl)cc1)c1ccccc1 (configuration not stated) the solubility kinetic was > 56.1 µg/mL. Compound O=C(CCc1ccc(S(=O)(=O)N2CCOCC2)cc1)Nc1ccc(F)cc1[N+](=O)[O-] has a solubility kinetic of 14 µg/mL (≈ 32 µM). Work on CCOc1ccccc1N=CC1=C(O)CC(c2ccccc2)CC1=O (configuration not stated) yielded a solubility kinetic of 3.4 µg/mL (≈ 10.1 µM). Compound C=CCn1c(NCc2ccc(OC)cc2)nc2ccccc21 has a solubility kinetic of 33.7 µg/mL (≈ 115 µM). With COc1ccc(N2C(=O)C(F)(F)C2c2cccc(F)c2)cc1 (configuration not stated) the solubility kinetic was < 0.7 µg/mL. In the case of CCOc1ccccc1CNCC1CCCO1.Cl (configuration not stated), the solubility kinetic is reported as 31.5 µg/mL. With CC(=O)c1ccc(N2CCN(C(=O)c3cccs3)C(C)C2)c(F)c1 (configuration not stated) the solubility kinetic was > 52 µg/mL. In the case of COc1ccc(CCNC(=O)CSc2ccccn2)cc1OC, the solubility kinetic is reported as > 49.9 µg/mL. CN(Cc1nc(-c2cccs2)no1)CC(O)c1ccccc1 (configuration not stated) showed a solubility kinetic of 42.8 µg/mL (≈ 136 µM). In the case of CC(C)(C)c1csc(NC(=O)c2ccccc2O)n1, the solubility kinetic is reported as 9.3 µg/mL (≈ 33.7 µM). CCC(C)[C@H](NC(=O)NCc1ccc(OC)c(OC)c1)C(=O)O (some centres not stated) gave a solubility kinetic of 39.9 µg/mL (≈ 123 µM). Work on COc1cc(SC)ccc1C(=O)Nc1ncc(C)s1 yielded a solubility kinetic of 1.4 µg/mL (≈ 4.76 µM). COc1ccc(/C=N/OCc2ccccc2C#N)c(OC)c1 gave a solubility kinetic of 0.4 µg/mL (≈ 1.35 µM). O=C(NCc1ccc2c(c1)OCO2)c1cc(=O)[nH]c2ccccc12 gave a solubility kinetic of 6 µg/mL (≈ 18.6 µM). With O=C(CSc1ccccc1C(=O)O)NCc1ccccc1 the solubility kinetic was 44 µg/mL (≈ 146 µM). For O=C(CSc1nccc(=O)[nH]1)c1cc2ccccc2o1, the solubility kinetic was > 42.9 µg/mL. In the case of CCOC(=O)Cc1csc(NC(=O)CSc2nc(C)cc(C)n2)n1, the solubility kinetic is reported as > 55 µg/mL. Work on CCOC(=O)C1CCCN(S(=O)(=O)c2ccc3ccccc3c2)C1 (configuration not stated) yielded a solubility kinetic of 13 µg/mL (≈ 37.4 µM). For CC1CC(C)CN(C(=O)CCNC(=O)c2ccccc2Cl)C1 (configuration not stated), the solubility kinetic was 47.7 µg/mL (≈ 148 µM). With O=C1CSC(c2cccc(F)c2)N1c1ccccc1 (configuration not stated) the solubility kinetic was > 41 µg/mL. In the case of CC(=O)c1sc(NC(=O)c2cccc(C)c2)nc1C, the solubility kinetic is reported as 16.8 µg/mL (≈ 61.2 µM). O=C(CCN1C(=O)C2C3CCC(C3)C2C1=O)OCC(=O)c1ccccc1 (configuration not stated) gave a solubility kinetic of 52.9 µg/mL (≈ 149 µM). In the case of COc1ccccc1C(=O)NCCC(=O)NCC1CCCO1 (configuration not stated), the solubility kinetic is reported as > 46 µg/mL. With O=C(/C=C/c1ccc(Cl)cc1)Nc1ccc(Br)cn1 the solubility kinetic was < 0.4 µg/mL. With CCOc1ccccc1C(=O)NC(C(=O)NCCc1ccccn1)C(C)C (configuration not stated) the solubility kinetic was > 55.4 µg/mL. With Cc1ccc(NC(/C=C/N(C)C)=C/C(=O)C(F)(F)F)c(C)c1 the solubility kinetic was 37.8 µg/mL (≈ 121 µM). For O=C(Nc1ccc(F)cc1)N1CCCCCC1, the solubility kinetic was > 35.4 µg/mL. Cc1cccc(NC(=O)CSc2cccc3cccnc23)c1C showed a solubility kinetic of 3.7 µg/mL (≈ 11.5 µM). For COc1cc(OC)c(C(=O)Nc2ccc3ccccc3c2)cc1OC, the solubility kinetic was < 0.7 µg/mL. For Cc1cc(NC(=O)CSc2nccn2-c2cccc(F)c2)no1, the solubility kinetic was > 49.9 µg/mL. COc1ccc2c(c1)c(C(=O)O)c(C)n2-c1ccccc1 gave a solubility kinetic of 38.4 µg/mL (≈ 137 µM). For Cc1ccc2c(N)c(C(=O)c3ccccc3)sc2n1, the solubility kinetic was 3.1 µg/mL (≈ 11.6 µM). In the case of Cc1ccccc1CSc1[nH]c(=O)ncc1C, the solubility kinetic is reported as > 36.9 µg/mL. CC1CCCC(NC(=O)c2ccc3c(c2)NC(=O)CS3)C1C (configuration not stated) showed a solubility kinetic of 5.3 µg/mL (≈ 16.6 µM). With Nc1cccc(Oc2cnccn2)c1 the solubility kinetic was > 28.1 µg/mL. CC1(c2cccc(Br)c2)NC(=O)N(CC(=O)Nc2ccc3c(c2)OCCO3)C1=O (configuration not stated) showed a solubility kinetic of 67.3 µg/mL (≈ 146 µM). For CCS(=O)(=O)Nc1ccc2[nH]c(=O)[nH]c2c1, the solubility kinetic was > 36.2 µg/mL. For O=C(Nc1ccc(N2CCOCC2)c(F)c1)c1cccs1, the solubility kinetic was 17 µg/mL (≈ 55.5 µM). Work on COc1nc(/C=C/N(C)C)c([N+](=O)[O-])c(OC)n1 yielded a solubility kinetic of 17.2 µg/mL (≈ 67.7 µM). CCCN(c1ccc(C)cc1)c1nc(=O)c2cccnc2s1 gave a solubility kinetic of 3 µg/mL (≈ 9.63 µM). Compound COc1ccc(CC(=O)Nc2c(C(N)=O)oc3ccccc23)cc1 has a solubility kinetic of 1.6 µg/mL (≈ 4.93 µM). With Cc1ccccc1S(=O)(=O)NC(=NCc1ccc(F)cc1)c1ccccc1 the solubility kinetic was 34.1 µg/mL (≈ 89.2 µM). Compound COc1ccc2oc(N)c(C=O)c(=O)c2c1 has a solubility kinetic of 30.8 µg/mL (≈ 141 µM). With CN(C)C(=O)c1cnc(-c2ccccc2)nc1-c1ccccc1 the solubility kinetic was > 45.5 µg/mL. In the case of FC(F)Oc1ccccc1NC(=S)Nc1cccnc1, the solubility kinetic is reported as 43.8 µg/mL (≈ 148 µM). In the case of CN1CCN(c2c(F)cc([N+](=O)[O-])c(N)c2Br)CC1, the solubility kinetic is reported as > 50 µg/mL. Compound COc1ccccc1CNC(=O)COC(=O)c1nccnc1N has a solubility kinetic of 39.7 µg/mL (≈ 126 µM). For Fc1ccc(CNc2ccc(N3CCN(Cc4ccccc4)CC3)cc2)cc1, the solubility kinetic was 14.6 µg/mL (≈ 38.9 µM). In the case of Nc1c(Cl)ncnc1NCc1cccnc1, the solubility kinetic is reported as > 35.4 µg/mL. Work on CCC1(C)Cc2ccccc2C(=O)N1 (configuration not stated) yielded a solubility kinetic of 25.2 µg/mL (≈ 133 µM). O=C(COc1ccc(Br)cc1)N(CCO)CCO gave a solubility kinetic of 34.5 µg/mL (≈ 108 µM). In the case of CCCC(=O)NCc1nc2ccccc2n1CC(=O)c1ccccc1, the solubility kinetic is reported as > 50.3 µg/mL. With COc1ccc(C(=O)CN2C(=O)COc3ccccc32)cc1 the solubility kinetic was 43.1 µg/mL (≈ 145 µM). In the case of Cc1cc(C)c(NC(=O)CN2C(=O)NC3(CCc4ccccc43)C2=O)c(Cl)c1 (configuration not stated), the solubility kinetic is reported as 33.1 µg/mL (≈ 83.2 µM). In the case of Nc1ccccc1C(=O)NCc1ccc(F)cc1, the solubility kinetic is reported as > 36.6 µg/mL. CCOc1ccccc1NC(=O)COC(=O)/C=C/c1cccs1 gave a solubility kinetic of 3.1 µg/mL (≈ 9.35 µM). For Cc1cccc(NC(=O)C2C3CCCCC32)c1 (configuration not stated), the solubility kinetic was 3 µg/mL (≈ 13.1 µM). For O=C(O)CNC(=O)C12CC3CC(CC(Cl)(C3)C1)C2, the solubility kinetic was > 40.8 µg/mL. In the case of CC1=C(C(=O)OC2CCCC(C)C2)C(c2ccccc2)NC(=O)N1 (configuration not stated), the solubility kinetic is reported as 4.3 µg/mL (≈ 13.1 µM). CC(C)[C@H](NC(=O)c1ccccc1)C(=O)OCC(=O)Nc1ncc(Cl)cc1Cl gave a solubility kinetic of 46 µg/mL (≈ 108 µM). For COc1ccc(OC)c(NC(=O)c2cccnc2)c1, the solubility kinetic was > 38.7 µg/mL. With Cc1[nH]c2ccccc2c1C(=O)CCl the solubility kinetic was 12.1 µg/mL (≈ 58.3 µM). In the case of O=C(COc1ncnc2ccccc12)NC1CCCC1, the solubility kinetic is reported as > 40.7 µg/mL. CN(CC(=O)Nc1ccc(F)cc1[N+](=O)[O-])Cc1ccccc1 gave a solubility kinetic of 1 µg/mL (≈ 3.15 µM). In the case of O=C(O)c1nn(-c2cccc(C(F)(F)F)c2)ccc1=O, the solubility kinetic is reported as > 42.6 µg/mL. For CN(CC(=O)Nc1c(F)cccc1F)Cc1cccs1, the solubility kinetic was > 44.5 µg/mL.
